Here are results for one molecule from patent US10597398B2, “Suppression and regeneration promoting effect of low molecular weight compound on cancer and fibrosis” (NATIONAL UNIVERSITY CORPORATION TOTTORI UNIVERSITY, priority 2015, dated 2020).

A short description of data set [1]: Liver cancer model mouse, body weight. The format is in vivo, mice. As to conditions: 30 mg/kg 5-FU or 50 mg/kg IC-2 intraperitoneally every three days. As to the method: CD44-positive HuH-7 cells were subcutaneously transplanted in mice. Next, the engrafted mice were divided into 3 groups (DMSO group: 5 mice; 5-FU group: 4 mice; and IC-2 group: 4 mice). Then, DMSO was added to prepare 30 mg/kg of 5-FU and 50 mg/kg of IC-2 such that each liquid volume was 100 μL; and 100% DMSO, a solvent for each drug, was used as a control sample. Subsequently, each drug was dosed intraperitoneally every three days. The body weight of each mouse and the long and short diameters of a tumor were measured every three days. The tumor volume was calculated by using the following equation: Tumor volume=Long diameter×(Short diameter)^2×0.5. The volume at Day 0 was used to normalize each tumor volume, and then a graph was created. To fully evaluate a 5-FU effect, the 5-FU dose was set to an amount 2 times the regular amount 15 mg/kg used in research articles. The concentration of IC-2 corresponding to a concentration at which Wnt/β-catenin signaling was inhibited in vitro was calculated. Then, the concentration was doubled to set an IC-2 dose.

The next data set has as its system liver fibrosis. The data set is described as follows: Non-alcoholic steatohepatitis model mouse (Azan staining). Format: in vivo, C57BL/6JHamSlc-ob/ob male mice. Conditions: high fat diet 12 weeks, drug for last 6 weeks, IC-2 21.2 mg/kg i.p. 3 times a week, vs vehicle group. As to the method: To induce anesthesia, 1-mL disposable syringe with a 27-G needle was used to intraperitoneally inject, into a mouse, 1 μL/g body weight of a systemic anesthetic somnopentyl (Kyoritsuseiyaku Corporation, Tokyo).
The liver tissue sample, as so resected, was fixed in 4% paraformaldehyde at room temperature for 16 h, embedded in paraffin, and sectioned with a microtome to prepare tissue sections. The tissue sections were subjected to deparaffinization using xylene (Nacalai tesque) and a hydration reaction with ethanol (Nacalai tesque), and were then allowed to stand in 5% potassium dichromate/trichloroacetic acid aqueous solution (Wako Pure Chemical Industries, Ltd.) for 20 min. After washing in running water for 5 min, the tissue sections were stained with Azocarmine G (Wako Pure Chemical Industries, Ltd.) at 60° C. for 1 h, washed with water, and then destained for 3 min in 5% aniline (Nacalai tesque)-containing ethanol solution. Next, 5% acetic acid (Nacalai tesque)-containing ethanol solution was used to stop the destaining reaction. After washing with water, the tissue sections were allowed to stand in 5% phosphotungstic acid aqueous solution (Alfa Aesar, Ward Hill, Mass.) for 1 h. […] The ratio of the blue-stained fiber area to the total tissue area of each photographed image was quantified to calculate a fibrosis-positive area ratio. […]

On to `O=C1C(Cc2ccccc2)N2C(=O)CCN(C(=O)NCc3ccccc3)C2CN1Cc1cccc2ccccc12` (centres unmarked) [IC-2], for which the body weight result in data set [1] is listed as “no change in the body weight”. Also, the “fibrosis area (Azan staining)” value in the data set on liver fibrosis was “decrease more than that of the vehicle group”.
